Assay results from ChEMBL document CHEMBL1151757, “Synthesis, radiosynthesis, and biological evaluation of fluorine-18-labeled 2beta-carbo(fluoroalkoxy)-3beta-(3'-((Z)-2-haloethenyl)phenyl)nortropanes: candidate radioligands for in vivo imaging of the serotonin transporter with positron emission tomography” (J Med Chem, 2008).

Assays:
[1] = Ratio of drug uptake in pons to cerebellum in anesthetized cynomolgus monkey after 105 mins postinjection; assay type: ADME, organism-based, Macaca fascicularis; details: in vivo, 1.75 h
[2] = Ratio of drug uptake in pons to cerebellum in anesthetized cynomolgus monkey after 175 mins postinjection; assay type: ADME, organism-based, Macaca fascicularis; details: in vivo
[3] = Ratio of drug uptake in medulla to cerebellum in anesthetized cynomolgus monkey after 1.5 mins postinjection; assay type: ADME, organism-based, Macaca fascicularis; details: in vivo, 0.025 h
[4] = Ratio of drug uptake in medulla to cerebellum in anesthetized cynomolgus monkey after 35 mins postinjection; assay type: ADME, organism-based, Macaca fascicularis; details: in vivo
[5] = Ratio of drug uptake in medulla to cerebellum in anesthetized cynomolgus monkey after 85 mins postinjection; assay type: ADME, organism-based, Macaca fascicularis; details: in vivo
[6] = Ratio of drug uptake in medulla to cerebellum in anesthetized cynomolgus monkey after 195 mins postinjection; assay type: ADME, organism-based, Macaca fascicularis; details: in vivo, 3.25 h
[7] = Drug uptake in anesthetized cynomolgus monkey brain occipital lobe after 4.5 mins postinjection; assay type: ADME, organism-based, Macaca fascicularis; details: in vivo, 0.075 h
[8] = Drug uptake in anesthetized cynomolgus monkey brain occipital lobe after 55 mins postinjection; assay type: ADME, organism-based, Macaca fascicularis; details: in vivo
[9] = Drug uptake in anesthetized cynomolgus monkey brain occipital lobe after 75 mins postinjection; assay type: ADME, organism-based, Macaca fascicularis; details: in vivo, 1.25 h
[10] = Drug uptake in anesthetized cynomolgus monkey brain occipital lobe after 135 mins postinjection; assay type: ADME, organism-based, Macaca fascicularis; details: in vivo, 2.25 h
[11] = Drug uptake in anesthetized cynomolgus monkey brain occipital lobe after 155 mins postinjection; assay type: ADME, organism-based, Macaca fascicularis; details: in vivo
[12] = Drug uptake in anesthetized cynomolgus monkey brain occipital lobe after 165 mins postinjection; assay type: ADME, organism-based, Macaca fascicularis; details: in vivo, 2.75 h
[13] = Drug uptake in anesthetized cynomolgus monkey brain frontal lobe after 15.5 mins postinjection; assay type: ADME, organism-based, Macaca fascicularis; details: in vivo
[14] = Drug uptake in anesthetized cynomolgus monkey brain frontal lobe after 155 mins postinjection; assay type: ADME, organism-based, Macaca fascicularis; details: in vivo
[15] = Ratio of drug uptake in midbrain to cerebellum in anesthetized cynomolgus monkey after 235 mins postinjection; assay type: ADME, organism-based, Macaca fascicularis; details: in vivo
[16] = Ratio of drug uptake in occipital lobe to cerebellum in anesthetized cynomolgus monkey after 175 mins postinjection; assay type: ADME, organism-based, Macaca fascicularis; details: in vivo
Putamen [17] = assay: Drug uptake in anesthetized cynomolgus monkey brain putamen after 135 mins postinjection; assay type: ADME, organism-based, Macaca fascicularis; details: in vivo, 2.25 h
[18] = Ratio of drug uptake in frontal lobe to cerebellum in anesthetized cynomolgus monkey after 75 mins postinjection; assay type: ADME, organism-based, Macaca fascicularis; details: in vivo, 1.25 h
Midbrain [19] = assay: Drug uptake in anesthetized cynomolgus monkey brain midbrain after 135 mins postinjection; assay type: ADME, organism-based, Macaca fascicularis; details: in vivo, 2.25 h
Midbrain [20] = assay: Drug uptake in anesthetized cynomolgus monkey brain midbrain after 225 mins postinjection; assay type: ADME, organism-based, Macaca fascicularis; details: in vivo, 3.75 h
Pons [21] = assay: Drug uptake in anesthetized cynomolgus monkey brain pons after 2.5 mins postinjection; assay type: ADME, organism-based, Macaca fascicularis; details: in vivo
Pons [22] = assay: Drug uptake in anesthetized cynomolgus monkey brain pons after 12.5 mins postinjection; assay type: ADME, organism-based, Macaca fascicularis; details: in vivo
Pons [23] = assay: Drug uptake in anesthetized cynomolgus monkey brain pons after 65 mins postinjection; assay type: ADME, organism-based, Macaca fascicularis; details: in vivo
Pons [24] = assay: Drug uptake in anesthetized cynomolgus monkey brain pons after 75 mins postinjection; assay type: ADME, organism-based, Macaca fascicularis; details: in vivo, 1.25 h
Pons [25] = assay: Drug uptake in anesthetized cynomolgus monkey brain pons after 105 mins postinjection; assay type: ADME, organism-based, Macaca fascicularis; details: in vivo, 1.75 h
Thalamus [26] = assay: Drug uptake in anesthetized cynomolgus monkey brain thalamus after 205 mins postinjection; assay type: ADME, organism-based, Macaca fascicularis; details: in vivo
Midbrain [27] = assay: Drug uptake in anesthetized cynomolgus monkey brain midbrain after 185 mins postinjection; assay type: ADME, organism-based, Macaca fascicularis; details: in vivo
[28] = Drug uptake in anesthetized cynomolgus monkey brain cerebellum after 195 mins postinjection; assay type: ADME, organism-based, Macaca fascicularis; details: in vivo, 3.25 h
[29] = Ratio of drug uptake in caudate to cerebellum in anesthetized cynomolgus monkey after 0.5 mins postinjection; assay type: ADME, organism-based, Macaca fascicularis; details: in vivo
Caudate [30] = assay: Drug uptake in anesthetized cynomolgus monkey brain caudate after 205 mins postinjection; assay type: ADME, organism-based, Macaca fascicularis, Caudate nucleus; details: in vivo
[31] = Ratio of drug uptake in caudate to cerebellum in anesthetized cynomolgus monkey after 9.5 mins postinjection; assay type: ADME, organism-based, Macaca fascicularis; details: in vivo
[32] = Ratio of drug uptake in caudate to cerebellum in anesthetized cynomolgus monkey after 18.5 mins postinjection; assay type: ADME, organism-based, Macaca fascicularis; details: in vivo
[33] = Ratio of drug uptake in caudate to cerebellum in anesthetized cynomolgus monkey after 135 mins postinjection; assay type: ADME, organism-based, Macaca fascicularis; details: in vivo, 2.25 h
Pons [34] = assay: Drug uptake in anesthetized cynomolgus monkey brain pons after 175 mins postinjection; assay type: ADME, organism-based, Macaca fascicularis; details: in vivo
[35] = Ratio of drug uptake in putamen to cerebellum in anesthetized cynomolgus monkey after 9.5 mins postinjection; assay type: ADME, organism-based, Macaca fascicularis; details: in vivo
Medulla [36] = assay: Drug uptake in anesthetized cynomolgus monkey brain medulla after 145 mins postinjection; assay type: ADME, organism-based, Macaca fascicularis; details: in vivo
[37] = Drug uptake in anesthetized cynomolgus monkey brain cerebellum after 1.5 mins postinjection; assay type: ADME, organism-based, Macaca fascicularis; details: in vivo, 0.025 h
[38] = Drug uptake in anesthetized cynomolgus monkey brain cerebellum after 22.5 mins postinjection; assay type: ADME, organism-based, Macaca fascicularis; details: in vivo, 0.375 h
[39] = Drug uptake in anesthetized cynomolgus monkey brain cerebellum after 75 mins postinjection; assay type: ADME, organism-based, Macaca fascicularis; details: in vivo, 1.25 h
[40] = Drug uptake in anesthetized cynomolgus monkey brain cerebellum after 95 mins postinjection; assay type: ADME, organism-based, Macaca fascicularis; details: in vivo
Medulla [41] = assay: Drug uptake in anesthetized cynomolgus monkey brain medulla after 115 mins postinjection; assay type: ADME, organism-based, Macaca fascicularis; details: in vivo
[42] = Drug uptake in anesthetized cynomolgus monkey brain cerebellum after 175 mins postinjection; assay type: ADME, organism-based, Macaca fascicularis; details: in vivo
[43] = Drug uptake in anesthetized cynomolgus monkey brain cerebellum after 215 mins postinjection; assay type: ADME, organism-based, Macaca fascicularis; details: in vivo
[44] = Drug uptake in anesthetized cynomolgus monkey brain cerebellum after 225 mins postinjection; assay type: ADME, organism-based, Macaca fascicularis; details: in vivo, 3.75 h
Caudate [45] = assay: Drug uptake in anesthetized cynomolgus monkey brain caudate after 1.5 mins postinjection; assay type: ADME, organism-based, Macaca fascicularis, Caudate nucleus; details: in vivo, 0.025 h
Caudate [46] = assay: Drug uptake in anesthetized cynomolgus monkey brain caudate after 12.5 mins postinjection; assay type: ADME, organism-based, Macaca fascicularis, Caudate nucleus; details: in vivo
Caudate [47] = assay: Drug uptake in anesthetized cynomolgus monkey brain caudate after 18.5 mins postinjection; assay type: ADME, organism-based, Macaca fascicularis, Caudate nucleus; details: in vivo
Caudate [48] = assay: Drug uptake in anesthetized cynomolgus monkey brain caudate after 35 mins postinjection; assay type: ADME, organism-based, Macaca fascicularis, Caudate nucleus; details: in vivo
Caudate [49] = assay: Drug uptake in anesthetized cynomolgus monkey brain caudate after 55 mins postinjection; assay type: ADME, organism-based, Macaca fascicularis, Caudate nucleus; details: in vivo
Caudate [50] = assay: Drug uptake in anesthetized cynomolgus monkey brain caudate after 85 mins postinjection; assay type: ADME, organism-based, Macaca fascicularis, Caudate nucleus; details: in vivo
Caudate [51] = assay: Drug uptake in anesthetized cynomolgus monkey brain caudate after 135 mins postinjection; assay type: ADME, organism-based, Macaca fascicularis, Caudate nucleus; details: in vivo, 2.25 h
Caudate [52] = assay: Drug uptake in anesthetized cynomolgus monkey brain caudate after 145 mins postinjection; assay type: ADME, organism-based, Macaca fascicularis, Caudate nucleus; details: in vivo
Putamen [53] = assay: Drug uptake in anesthetized cynomolgus monkey brain putamen after 2.5 mins postinjection; assay type: ADME, organism-based, Macaca fascicularis; details: in vivo
[54] = Ratio of drug uptake in occipital lobe to cerebellum in anesthetized cynomolgus monkey after 18.5 mins postinjection; assay type: ADME, organism-based, Macaca fascicularis; details: in vivo
Thalamus [55] = assay: Drug uptake in anesthetized cynomolgus monkey brain thalamus after 27.5 mins postinjection; assay type: ADME, organism-based, Macaca fascicularis; parameters: unit not given here; details: in vivo
Putamen [56] = assay: Drug uptake in anesthetized cynomolgus monkey brain putamen after 15.5 mins postinjection; assay type: ADME, organism-based, Macaca fascicularis; parameters: unit not given here; details: in vivo
Putamen [57] = assay: Drug uptake in anesthetized cynomolgus monkey brain putamen after 22.5 mins postinjection; assay type: ADME, organism-based, Macaca fascicularis; parameters: unit not given here; details: in vivo, 0.375 h
Putamen [58] = assay: Drug uptake in anesthetized cynomolgus monkey brain putamen after 45 mins postinjection; assay type: ADME, organism-based, Macaca fascicularis; parameters: unit not given here; details: in vivo, 0.75 h
Putamen [59] = assay: Drug uptake in anesthetized cynomolgus monkey brain putamen after 65 mins postinjection; assay type: ADME, organism-based, Macaca fascicularis; parameters: unit not given here; details: in vivo
Putamen [60] = assay: Drug uptake in anesthetized cynomolgus monkey brain putamen after 85 mins postinjection; assay type: ADME, organism-based, Macaca fascicularis; parameters: unit not given here; details: in vivo
Thalamus [61] = assay: Drug uptake in anesthetized cynomolgus monkey brain thalamus after 95 mins postinjection; assay type: ADME, organism-based, Macaca fascicularis; parameters: unit not given here; details: in vivo
Thalamus [62] = assay: Drug uptake in anesthetized cynomolgus monkey brain thalamus after 135 mins postinjection; assay type: ADME, organism-based, Macaca fascicularis; parameters: unit not given here; details: in vivo, 2.25 h
Thalamus [63] = assay: Drug uptake in anesthetized cynomolgus monkey brain thalamus after 215 mins postinjection; assay type: ADME, organism-based, Macaca fascicularis; parameters: unit not given here; details: in vivo
Midbrain [64] = assay: Drug uptake in anesthetized cynomolgus monkey brain midbrain after 15.5 mins postinjection; assay type: ADME, organism-based, Macaca fascicularis; parameters: unit not given here; details: in vivo
Midbrain [65] = assay: Drug uptake in anesthetized cynomolgus monkey brain midbrain after 45 mins postinjection; assay type: ADME, organism-based, Macaca fascicularis; parameters: unit not given here; details: in vivo, 0.75 h
[66] = Ratio of drug uptake in midbrain to cerebellum in anesthetized cynomolgus monkey after 22.5 mins postinjection; assay type: ADME, organism-based, Macaca fascicularis; details: in vivo, 0.375 h
[67] = Ratio of drug uptake in midbrain to cerebellum in anesthetized cynomolgus monkey after 125 mins postinjection; assay type: ADME, organism-based, Macaca fascicularis; details: in vivo

## O=C(OCCC[18F])C1C2CCC(CC1c1cccc(/C=C\I)c1)N2 (configuration not stated)
[1]
  Ratio: 1.2
[2]
  Ratio: 1.4
[3]
  Ratio: 1.3
[4]
  Ratio: 1.1
[5]
  Ratio: 1.3
[6]
  Ratio: 1.7
[7]
  Drug uptake: 2.06
[8]
  Drug uptake: 4
[9]
  Drug uptake: 3.68
[10]
  Drug uptake: 2.82
[11]
  Drug uptake: 2.63
[12]
  Drug uptake: 2.59
[13]
  Drug uptake: 2.42
[14]
  Drug uptake: 2.33
[15]
  Ratio: 1.9
[16]
  Ratio: 1.1
Putamen [17]
  Drug uptake: 4.16
[18]
  Ratio: 0.7
Midbrain [19]
  Drug uptake: 4.45
Midbrain [20]
  Drug uptake: 3.76
Pons [21]
  Drug uptake: 0.95
Pons [22]
  Drug uptake: 3.49
Pons [23]
  Drug uptake: 4.54
Pons [24]
  Drug uptake: 4.34
Pons [25]
  Drug uptake: 4.01
Thalamus [26]
  Drug uptake: 3.14
Midbrain [27]
  Drug uptake: 4.05
[28]
  Drug uptake: 2.16
[29]
  Ratio: 1
Caudate [30]
  Drug uptake: 2.65
[31]
  Ratio: 0.6
[32]
  Ratio: 0.7
[33]
  Ratio: 1.3
Pons [34]
  Drug uptake: 3.41
[35]
  Ratio: 0.9
Medulla [36]
  Drug uptake: 4.24
[37]
  Drug uptake: 0.27
[38]
  Drug uptake: 4.78
[39]
  Drug uptake: 3.87
[40]
  Drug uptake: 3.46
Medulla [41]
  Drug uptake: 4.59
[42]
  Drug uptake: 2.37
[43]
  Drug uptake: 2.06
[44]
  Drug uptake: 1.87
Caudate [45]
  Drug uptake: 0.16
Caudate [46]
  Drug uptake: 3
Caudate [47]
  Drug uptake: 3.38
Caudate [48]
  Drug uptake: 3.9
Caudate [49]
  Drug uptake: 4.09
Caudate [50]
  Drug uptake: 3.94
Caudate [51]
  Drug uptake: 3.34
Caudate [52]
  Drug uptake: 3.24
Putamen [53]
  Drug uptake: 0.84
[54]
  Ratio: 0.8
Thalamus [55]
  Drug uptake: 4.66
Putamen [56]
  Drug uptake: 4.27
Putamen [57]
  Drug uptake: 4.71
Putamen [58]
  Drug uptake: 5.05
Putamen [59]
  Drug uptake: 4.95
Putamen [60]
  Drug uptake: 4.82
Thalamus [61]
  Drug uptake: 4.52
Thalamus [62]
  Drug uptake: 4.02
Thalamus [63]
  Drug uptake: 3.02
Midbrain [64]
  Drug uptake: 4.45
Midbrain [65]
  Drug uptake: 5.02
[66]
  Ratio: 1
[67]
  Ratio: 1.6
